Test results published in ChEMBL document CHEMBL5620416, “Design, synthesis and development of a dual inhibitor of Topoisomerase 1 and poly (ADP-ribose) polymerase 1 for efficient killing of cancer cells” (Eur J Med Chem, 2023).
Calls of active or inactive are those of the source. The calls are words filed in the database; no cut-off is given here.

Tests used:
[1] = system: Calf thymus DNA; assay: Binding affinity to calf thymus pUC19 DNA assessed as intercalating activity by measuring conformational change in DNA at 50 to 300 uM incubated for 30 mins by EtBr staining based agarose gel electrophoresis; type: nucleic-acid assay; details: Bos taurus, dose 50-300 µM
[2] = system: HCT-116; assay: Induction of cell cycle arrest in human HCT-116 cells assessed as accumulation of cells at G2 phase at 20 uM incubated for 48 hrs by PI staining based flow cytometry analysis (reference value: 26%); type: functional
[3] = target: Poly [ADP-ribose] polymerase 1 (Homo sapiens) (UniProt P09874); assay: Inhibition of recombinant human PARP1 incubated for 10 mins; details: dose 10-30 µM
[4] = target: Poly [ADP-ribose] polymerase 1 (Homo sapiens) (UniProt P09874); assay: Inhibition of recombinant human PARP1 at 20 uM incubated for 10 mins relative to control
[5] = system: HCT-116; assay: Induction of cell cycle arrest in human HCT-116 cells assessed as accumulation of cells at Sub-G1 phase at 10 uM incubated for 24 hrs by PI staining based flow cytometry analysis (reference value: 1.1 +/- 0.1%); type: functional
[6] = system: HCT-116; assay: Induction of DNA double stranded break in human HCT-116 cells assessed as increase in 53BP1 level at 20 uM after 4 to 8 hrs by immunofluorescence assay; type: functional, cell-based; details: time 4-8 hrs
[7] = system: DNA topoisomerase 1/Deoxyribonucleic acid (Homo sapiens); assay: Induction of TOP1-DNA covalent complex stabilization in human HCT-116 cells at 20 uM by immunofluorescence microscopic assay; type: cell-based; details: time 2-8 hrs, TDE = time-dependent effect
[8] = system: MIA PaCa-2; assay: Cytotoxicity against human MIA PaCa-2 cells at less than 10 uM incubated for 7 to 10 days by crystal violet staining based assay; type: functional, cell-based; details: time 7-10 day
[9] = target: T1, DNA topoisomerase 1 (Homo sapiens) (UniProt P11387); assay: Inhibition of recombinant human Top1 assessed as reduction in plasmid relaxation at 10 to 20 uM using pUC19 plasmid DNA as substrate measured upto 30 mins by ethidium bromide staining based assay; details: dose 10-20 µM
T1 sequence (whole entry): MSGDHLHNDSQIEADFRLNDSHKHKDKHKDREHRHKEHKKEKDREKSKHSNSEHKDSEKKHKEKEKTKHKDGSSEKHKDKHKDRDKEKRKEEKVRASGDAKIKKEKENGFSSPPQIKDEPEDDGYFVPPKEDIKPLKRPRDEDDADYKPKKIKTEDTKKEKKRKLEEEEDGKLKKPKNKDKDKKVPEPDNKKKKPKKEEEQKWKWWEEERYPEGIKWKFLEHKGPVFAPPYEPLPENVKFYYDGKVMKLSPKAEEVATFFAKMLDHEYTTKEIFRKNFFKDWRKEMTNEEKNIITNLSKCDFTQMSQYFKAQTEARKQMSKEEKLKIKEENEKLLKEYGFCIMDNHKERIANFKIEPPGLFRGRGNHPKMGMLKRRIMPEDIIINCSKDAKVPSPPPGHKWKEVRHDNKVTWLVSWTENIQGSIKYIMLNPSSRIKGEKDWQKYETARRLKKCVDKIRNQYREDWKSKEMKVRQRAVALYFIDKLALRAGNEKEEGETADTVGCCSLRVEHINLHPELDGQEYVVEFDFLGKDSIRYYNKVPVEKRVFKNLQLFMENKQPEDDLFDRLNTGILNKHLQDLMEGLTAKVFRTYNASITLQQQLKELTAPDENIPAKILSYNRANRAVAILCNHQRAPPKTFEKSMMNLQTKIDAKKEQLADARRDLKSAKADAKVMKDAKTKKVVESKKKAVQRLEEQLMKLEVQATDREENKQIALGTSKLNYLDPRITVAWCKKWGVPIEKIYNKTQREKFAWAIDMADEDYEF

[10] = Stability in human plasma assessed as compound degradation incubated for 15 mins by HPLC analysis; type: ADME, cell-free; details: read-out: Drug degradation
[11] = system: HCT-116; assay: Induction of cell cycle arrest in human HCT-116 cells assessed as accumulation of cells at Sub-G1 phase at 5 uM incubated for 24 hrs by PI staining based flow cytometry analysis (reference value: 1.1 +/- 0.1%); type: functional
[12] = system: HCT-116; assay: Induction of cell cycle arrest in human HCT-116 cells assessed as accumulation of cells at Sub-G1 phase at 20 uM incubated for 24 hrs by PI staining based flow cytometry analysis (reference value: 1.1 +/- 0.1%); type: functional
[13] = system: MCF-10A; assay: Cytotoxicity against human MCF-10A cells at 50 uM incubated for 72 hrs by MTT assay; type: toxicity, cell-based
[14] = system: HCT-116; assay: Induction of DNA double stranded break in human HCT-116 cells assessed as increase in gammaH2AX level at 20 uM after 4 to 8 hrs by immunofluorescence assay; type: functional, cell-based; details: time 4-8 hrs
[15] = system: HCT-116; assay: Induction of PARylation in human HCT-116 cells at 20 uM incubated for 2 to 8 hrs by Western blotting analysis; type: functional, cell-based; details: time 2-8 hrs
[16] = system: HCT-116; assay: Induction of cell cycle arrest in human HCT-116 cells assessed as accumulation of cells at Sub-G1 phase at 10 uM incubated for 48 hrs by PI staining based flow cytometry analysis (reference value: 2.7 +/- 0.4%); type: functional
[17] = system: HCT-116; assay: Induction of cell cycle arrest in human HCT-116 cells assessed as accumulation of cells at G2 phase at 10 uM incubated for 48 hrs by PI staining based flow cytometry analysis (reference value: 26%); type: functional
[18] = system: HCT-116; assay: Induction of PARP1 trapping in human HCT-116 cells assessed as change in PARP1 level in chromatin fraction at 20 uM incubated for 4 to 8 hrs by SDS PAGE analysis; type: functional, cell-based; details: time 4-8 hrs
[19] = system: HCT-116; assay: Induction of cell cycle arrest in human HCT-116 cells assessed as accumulation of cells at S phase at 10 uM incubated for 48 hrs by PI staining based flow cytometry analysis (reference value: 17%); type: functional
[20] = system: PANC-1; assay: Cytotoxicity against human PANC-1 cells at less than 10 uM incubated for 7 to 10 days by crystal violet staining based assay; type: functional, cell-based; details: time 7-10 day
[21] = system: HCT-116; assay: Induction of cell cycle arrest in human HCT-116 cells assessed as accumulation of cells at G2 phase at 5 uM incubated for 48 hrs by PI staining based flow cytometry analysis (reference value: 26%); type: functional
[22] = system: DNA topoisomerase 1/Deoxyribonucleic acid (Homo sapiens); assay: Induction of TOP1-DNA covalent complex stabilization in human HCT-116 cells at 10 to 20 uM after 4 to 6 hrs by RADAR assay; type: cell-based; details: dose 10-20 µM, time 4-6 hrs
[23] = system: DNA topoisomerase 1/Deoxyribonucleic acid (Homo sapiens); assay: Induction of TOP1-DNA covalent complex stabilization in human HCT-116 cells after 2 to 6 hrs by RADAR assay; type: cell-based; details: dose 10-20 µM, time 2-6 hrs
[24] = system: HCT-116; assay: Induction of PARylation in human HCT-116 cells at 1 uM incubated for 4 hrs by Western blotting analysis; type: functional, cell-based
[25] = target: Poly [ADP-ribose] polymerase 1 (Homo sapiens) (UniProt P09874); assay: Inhibition of recombinant human PARP1 at 30 uM incubated for 10 mins relative to control
[26] = system: HCT-116; assay: Induction of cell cycle arrest in human HCT-116 cells incubated for 24 to 48 hrs by PI staining based flow cytometry analysis; type: functional; details: dose 5-20 µM, time 24-48 hrs
[27] = system: HCT-116; assay: Cytotoxicity against human HCT-116 cells incubated for 72 hrs by MTT assay; type: functional, cell-based; details: HCT-116, 72 h

Sequence of Poly [ADP-ribose] polymerase 1 (Homo sapiens) (P09874 whole entry): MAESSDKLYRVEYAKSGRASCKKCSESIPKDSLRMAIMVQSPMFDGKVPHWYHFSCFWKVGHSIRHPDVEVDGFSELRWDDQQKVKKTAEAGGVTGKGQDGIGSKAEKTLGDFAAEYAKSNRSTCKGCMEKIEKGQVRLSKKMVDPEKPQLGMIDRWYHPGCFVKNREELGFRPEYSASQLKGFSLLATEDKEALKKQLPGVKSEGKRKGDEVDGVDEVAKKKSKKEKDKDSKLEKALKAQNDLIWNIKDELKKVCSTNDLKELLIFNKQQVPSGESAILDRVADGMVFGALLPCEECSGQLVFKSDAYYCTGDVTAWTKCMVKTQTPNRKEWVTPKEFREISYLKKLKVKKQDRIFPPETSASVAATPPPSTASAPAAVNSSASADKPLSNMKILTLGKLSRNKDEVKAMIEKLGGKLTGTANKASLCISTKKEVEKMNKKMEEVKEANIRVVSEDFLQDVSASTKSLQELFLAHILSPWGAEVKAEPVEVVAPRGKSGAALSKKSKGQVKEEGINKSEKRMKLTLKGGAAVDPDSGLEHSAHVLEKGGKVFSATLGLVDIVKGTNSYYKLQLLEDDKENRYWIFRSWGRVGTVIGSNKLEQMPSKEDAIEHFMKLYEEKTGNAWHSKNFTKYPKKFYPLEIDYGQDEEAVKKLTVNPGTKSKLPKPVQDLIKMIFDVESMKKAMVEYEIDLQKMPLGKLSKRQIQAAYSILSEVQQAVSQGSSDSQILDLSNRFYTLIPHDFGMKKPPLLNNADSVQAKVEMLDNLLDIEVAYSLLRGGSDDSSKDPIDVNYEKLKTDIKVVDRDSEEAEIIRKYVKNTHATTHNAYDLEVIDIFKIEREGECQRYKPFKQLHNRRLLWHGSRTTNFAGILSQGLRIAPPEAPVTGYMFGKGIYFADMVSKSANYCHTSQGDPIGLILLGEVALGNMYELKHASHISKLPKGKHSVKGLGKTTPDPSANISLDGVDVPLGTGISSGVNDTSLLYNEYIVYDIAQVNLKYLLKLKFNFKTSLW

O=C1c2cccc3cccc(c23)C(=O)N1CCSc1nnc(Cn2nc(Cc3ccc(F)cc3)c3ccccc3c2=O)o1
Activity [1]: inactive
Activity [2]: 34%
inhibition [3]: Dose-Dependent Effect
inhibition [4]: 25%
Activity [5]: 30.8%
Activity [6]: Active
Activity [7]: Tde
Activity [8]: Active
inhibition [9]: Active
metabolised at 0.25 h [10]: 20%
Activity [11]: 23.8%
Activity [12]: 39.1%
Activity [13]: > 80%
Activity [14]: Active
Activity [15]: Active
Activity [16]: 44.2%
Activity [17]: 32%
Activity [18]: inactive
Activity [19]: 33%
Activity [20]: Active
Activity [21]: 29%
Activity [22]: Active
Activity [23]: Dose-Dependent Effect
Activity [24]: Active
inhibition [25]: 35%
Activity [26]: Dose-Dependent Effect
IC50 [27]: 4 µM
